Laboratory results published in ChEMBL document CHEMBL1135139, “Solid-phase synthesis of thrombin inhibitors” (Bioorg Med Chem Lett, 2002).

Target: Prothrombin (Homo sapiens, UniProt P00734)
Test: In vitro Inhibitory concentration against Thrombin

Molecule `N=C(N)c1ccc(CNC(=O)[C@@H]2C=CCN2C(=O)[C@@H](CC2CCCCC2)NCC(=O)O)s1` has an IC50 of 3.6 nM.
